Patent US12594227B2, “Tetrapeptide and compositions comprising tetrapeptides” (THE BOOTS COMPANY PLC, priority 2020, dated 2026)
The star is where a group is joined. Palmitoyl = CCCCCCCCCCCCCCCC(=O)*

What was measured:
[1] = tested on: LGALS3; experiment: LC-MS/MS relative protein abundance in secretome/matrisome of HDFs: LGALS3; type: cell-based, human; conditions: 8 ppm peptide, seven-day culture
Protocol: (§1) Following incubation with the peptides, liquid chromatography tandem mass spectrometry (LC-MS/MS) was used to quantify the relative abundance differences between proteins identified in the secretome/matrisome, versus an untreated control. HDFs from a donor, plated at 50,000 cells per well, were cultured with either peptide dissolved in cell culture media to achieve a final concentration of 8 ppm or with media without any peptide as a negative control. Treated and control cells were tested in triplicate. The cells were cultured as normal for five days in serum-supplemented media and then for a further two days in serum-free media (seven-day culture in total). The cell media containing the secretome (the proteins secreted by the cell) and the ECM, decellularized by incubation with EDTA (ethylenediaminetetraacetic acid), containing the matrisome (the collection of ECM associated proteins) were collected. The combined secretome and the matrisome compartments were subsequently analysed by LC-MS/MS using the following protocol.
(§2) Proteins were denatured (in urea), reduced (in dithiothreitol) and mechanically disassociated (using ultrasonication) prior to overnight digestion with trypsin (SMART Digest™ trypsin kit; Thermo Fisher). After digestion, samples were cleaned of contaminants up by removal of organic molecules and surfactants using biphasic extraction and desalted using OLIGO™ R3 Reversed Phase Resin (Thermo Fisher).
(§3) Samples (200 ng) were ran on an UltiMate® 3000 Rapid Separation Liquid Chromatographer coupled to a Q Exactive™ Hybrid Quadrupole-Orbitrap™ Mass Spectrometer for 90-minutes per sample run. Spectral data was searched again the Uniprot Human proteome database using Mascot v2.5.1. Subsequent protein identification and data-dependent quantification was performed using Progenesis QI. Normalised protein abundances were compared between each peptide treatment and control. Statistical analysis was performed within Progenesis QI using a between sample ANOVA.
(§4) The mass spectrometry data for each peptide is shown below in table 3 and FIG. 1. […] These protein families were as follows: proteoglycans, UV DNA repair proteins, basement membrane protein and cell-adhesion proteins; functional protein families with a potentially important role in dermal repair and remodelling.
(§5) The results of the above mass spectrometry experiments wherein a range of tetrapeptides are applied to HDFs to elicit a response in the expression of dermal extracellular proteins are provided in table 3 below. The protein family which the protein belongs to is also shown. Mass spectrometry results using peptide sequences, according to the invention (column 1) and not according to the present invention (columns 2, 3 and 4), are also presented within the table for comparison.

[2] = tested on: RAD23A; experiment: LC-MS/MS relative protein abundance in secretome/matrisome of HDFs: RAD23A; type: cell-based, human; conditions: 8 ppm peptide, seven-day culture
Protocol: as §1, §2, §3, §4, §5

[3] = tested on: NID1; experiment: LC-MS/MS relative protein abundance in secretome/matrisome of HDFs: NID1; type: cell-based, human; conditions: 8 ppm peptide, seven-day culture
Protocol: as §1, §2, §3, §4, §5

[4] = tested on: LAMB2; experiment: LC-MS/MS relative protein abundance in secretome/matrisome of HDFs: LAMB2; type: cell-based, human; conditions: 8 ppm peptide, seven-day culture
Protocol: as §1, §2, §3, §4, §5

[5] = tested on: CDH2; experiment: LC-MS/MS relative protein abundance in secretome/matrisome of HDFs: CDH2; type: cell-based, human; conditions: 8 ppm peptide, seven-day culture
Protocol: as §1, §2, §3, §4, §5

[6] = tested on: CSPG2; experiment: LC-MS/MS relative protein abundance in secretome/matrisome of HDFs: CSPG2; type: cell-based, human; conditions: 8 ppm peptide, seven-day culture
Protocol: as §1, §2, §3, §4, §5

[7] = tested on: Fibrillin-1; experiment: Immunofluorescence of Fibrillin-1 fibre abundance in primary human dermal fibroblasts; type: cell-based; conditions: HDF cells, 5 days
Protocol: Immunofluorescence relies on the use of antibodies to label a specific protein with a fluorescent dye such as fluorescein isothiocyanate (FITC). In the following experiments, indirect immunofluorescence is used where a primary antibody first recognises and attaches to the specific protein, in this case fibrillin-1, and then a secondary antibody conjugated with FITC directed against the primary antibody is used for detection.
For all experiments, the control liquid stock was prepared by dissolving the powdered peptides in DMSO (Dimethyl Sulfoxide solvent). Peptide powders were dissolved in DMSO at recommended part per million concentrations and then further diluted in the cell culture medium and combined to obtain the desired peptide ratio.
Fibrillin-1 expression was determined using immunofluorescence. Primary human dermal fibroblast (I-IDF) cells were purchased from Promo Cell and came from a donor. […]
The antibody binding to Fibrillin-1 fibres was visualised using a Nikon Eclipse 100 microscope fluorescence setting using an excitation lens for fluorescein isothiocyanate (FITC). […] ImageJ software was used to quantify the Fibrillin-1 fibre abundance and coverage in each image using a threshold of 235 measuring the fibre density.
Results are expressed as a percentage increase in fibrillin abundance compared to untreated control. […]

[8] = tested on: Decorin; experiment: ELISA assay of decorin in culture supernatant of human dermal fibroblasts; type: cell-based; conditions: 5 ppm peptide; normal human dermal fibroblasts; 72 hours; ELISA weighted to viable cells
Protocol: (§6) An ELISA is an immunological assay commonly used to measure presence and abundance of a specific proteins (antibodies, antigens, proteins and glycoproteins) in biological samples. In this case ELISAs are being used to quantify the expression of dermal extracellular proteins collagen-1, decorin, and fibronectin. The quantity of collagen I is evaluated via the quantity of PIP (“carboxU-terminal pro-peptide of procollagen type I”) which is a peptide fragment resulting from the enzymatic degradation of procollagen present outside the fibroblast in the culture supernatant medium. […]
(§7) Normal human dermal fibroblasts cells (HDFs) were cultured in contact with the tetrapeptides of the present invention, or composition without the peptide (negative control), for 72 hours. Thereafter the cultured supernatants were removed, and the quantity of dermal extracellular proteins determined using an ELISA assay for the protein of interest. For the ELISA quantification, cell viability was calculated using Hoechst staining allowing the quantity of dermal proteins to be weighted to the number of viable cells.
(§8) The effect of the QTAV tetrapeptide on ECM protein expression by fibroblasts as measured by ELISA (column 1) versus tetrapeptide not conforming to the QTAV structure (column 2) are presented in the table below (table 1). Results are expressed as % increase versus the negative control.

[9] = tested on: Collagen 1 (PIP); experiment: ELISA assay of collagen I (via PIP) in culture supernatant of human dermal fibroblasts; type: cell-based; conditions: 5 ppm peptide; normal human dermal fibroblasts; 72 hours; ELISA weighted to viable cells
Protocol: as §6, §7
The quantity of collagen I is evaluated using the quantity of PIP (“carboxU-terminal pro-peptide of procollagen type I”) which is a peptide fragment resulting from the enzymatic degradation of procollagen present outside the fibroblast in the culture supernatant medium. […]

[10] = tested on: Fibronectin; experiment: ELISA assay of fibronectin in culture supernatant of human dermal fibroblasts; type: cell-based; conditions: 5 ppm peptide; normal human dermal fibroblasts; 72 hours; ELISA weighted to viable cells
Protocol: as §6, §7, §8

[11] = tested on: proteoglycans, UV DNA repair proteins, basement membrane protein and cell-adhesion proteins; experiment: LC-MS/MS protein families overview (bubble plot FIG. 1) in HDFs; type: cell-based, human; conditions: 8 ppm peptide, result in words
Protocol: as §1, with “protocol. […]” for “protocol.”
Samples (200 ng) were ran on an UltiMate® 3000 Rapid Separation Liquid Chromatographer coupled to a Q Exactive™ Hybrid Quadrupole-Orbitrap™ Mass Spectrometer for 90-minutes per sample run. […] Subsequent protein identification and data-dependent quantification was performed using Progenesis QI. […]

Substance	LGALS3 (Cell adhesion) protein enhanced versus untreated control [1] [%]	RAD23A (UV DNA repair) protein enhanced versus untreated control [2] [%]	NID1 (Basement membrane) protein enhanced versus untreated control [3]	LAMB2 (Basement membrane) protein enhanced versus untreated control [4] [%]	CDH2 (Cell adhesion) protein enhanced versus untreated control [5] [%]	CSPG2 (Proteoglycans) protein enhanced versus untreated control [6] [%]	Fibrillin-1, percentage increase in fibrillin abundance compared to untreated control ([7]; 10 ppm peptide)	Decorin, % increase versus the negative control [8]	Collagen 1 (PIP), % increase versus the negative control [9]	Fibronectin, % increase versus the negative control [10]	Fibrillin-1, percentage increase in fibrillin abundance compared to untreated control ([7]; 12.5 ppm peptide)	enhancement of protein families (proteoglycans, UV DNA repair proteins, basement membrane proteins, cell adhesion proteins) ([11]; FIG. 1 bubble plot)	protein synthesis in comparison to the control ([11]; HDFs, LC-MS/MS)
Pal-GPSG-OH	2	51	28%	25	85	20	–	–	–	–	–	–	–
Pal-GYIL-OH	–	–	–	–	–	–	+3%	+2%	−4%	−23%	–	–	–
Pal-LSPD-OH	5	5	27%	40	39	5	–	–	–	–	–	–	–
Pal-LSPG-OH	24	94	6.60%^	22	10	<1	–	–	–	–	–	–	–
Pal-QTAV-OH (Palmitoyl-QTAV-OH; SMILES CCCCCCCCCCCCCCCC(=O)N[C@@H](CCC(N)=O)C(=O)N[C@H](C(=O)N[C@@H](C)C(=O)N[C@H](C(=O)O)C(C)C)[C@@H](C)O) [palmitoyl tetrapeptide Gln-Thr-Ala-Val with free C-terminal OH, according to the invention]	32	230	32%	27	69	31	–	+33%	+59%	+87%	+84%	the only sequence to significantly enhance	overall enhancement of protein synthesis
